Assay results taken from patent publication USRE48468E1, “Means and methods for counteracting muscle disorders” (BioMarin Technologies B.V., priority 2007, dated 2021).
Where a SMILES comes first, the peptide text is derived from it. The star is where a group is joined. Cbz = O=C(OCc1ccccc1)*

Tests used:
[1] = molecular target: 20S and 26S proteasomes; settings: read-out: Ki (proteasomal inhibitor); cited from earlier work
[2] = tested on: exon 23 of the dystrophin gene; test: Exon 23 skipping in mdx mice treated with PS49 with or without pentoxyfilline (RT-PCR); type: in vivo
Method: In a pre-clinical study in mdx mice (animal model for DMD) the effect of adjunct compound pentoxyfilline on AON-induced exon skipping was assessed. Mdx mice (C57Bl/10ScSn-mdx/J) were obtained from Charles River Laboratories (The Netherlands). These mice are dystrophin-deficient due to a nonsense mutation in exon 23. AON-induced exon 23 skipping is therapeutic in mdx mice by removing the nonsense mutation and correction of the open reading frame. Two mdx mice per group were injected subcutaneously with: Group 1) pentoxyfilline (50 mg/kg, wk 1-2), Group 2) mouse-specific antisense oligonucleotide PS49 designed to specifically induce exon 23 skipping (100 mg/kg, wk 2 (2 times), Group 3) pentoxyfilline (50 mg/kg, wk 1-2)+PS49 (100 mg/kg, wk 2 (2 times). PS49 (5′ […] 3′) has a full-length phosphorothioate backbone and 2′O-methyl modified ribose molecules.
All mice were sacrificed at 1 week post-last-injection. Different muscles groups, including quadriceps, tibialis anterior, triceps and heart muscles were isolated and frozen in liquid nitrogen-cooled 2-methylbutane. […] PCR products were analysed on 2% agarose gels. Skipping efficiencies were determined by quantification of PCR products using the DNA 1000 LabChip® Kit and the Agilent 2100 bioanalyzer (Agilent Technologies, The Netherlands).

[3] = tested on: DMD gene exon 44; test: Exon 44 skipping in control myotubes transfected with PS188 in presence of pentoxifylline (RT-PCR); type: cell-based, human; settings: 250 nM PS188, 0 to 0.5 mg/ml pentoxifylline, RNA 24 hrs after transfection
Method: (§1) A., B. Differentiated muscle cell cultures (myotubes) derived from a healthy control individual were transfected with 250 nM PS188 ([5′ […] 3′; SEQ ID NO:10] an AON optimized to specifically skip exon 44) or 250 nM PS221 ([5′ […] 3′; SEQ ID NO: 60] an AON optimized to specifically skip exon 45) in the presence of 0 to 0.5 mg/ml pentoxifylline, using the transfection reagent polymer UNIFectylin (2.0 μl UNIFectylin per μg AON in 0.15M NaCl). UNIFectylin interacts electrostatically with nucleic acids, provided that the nucleic acid is negatively charged (such as 2′-O-methyl phosphorothioate AONs). Pentoxyfillin (Sigma Aldrich) was dissolved in water. Total RNA was isolated 24 hrs after transfection in RNA-Bee solution (Campro Scientific, The Netherlands) according to the manufacturer's instructions. For cDNA synthesis with reverse transcriptase (Roche Diagnostics, The Netherlands), 500 ng of RNA was used in a 20 μl reaction at 55° C. for 30 min, reverse primed with DMD gene-specific primers. First PCRs were performed with outer primer sets, for 20 cycles of 94° C. (40 sec), 60° C. (40 sec), and 72° C. (60 sec). One μl of this reaction (diluted 1:10) was then re-amplified using nested primer combinations in the exons directly flanking exon 44 or 45, with 30 cycles of 94° C. (40 sec), 60° C. (40 sec), and 72° C. (60 sec). PCR products were analysed on 2% agarose gels. Skipping efficiencies were determined by quantification of PCR products using the DNA 1000 LabChip® Kit and the Agilent 2100 bioanalyzer (Agilent Technologies, The Netherlands).

[4] = tested on: DMD gene exon 45; test: Exon 45 skipping in control myotubes transfected with PS221 in presence of pentoxifylline (RT-PCR); type: cell-based, human; settings: 250 nM PS221, 0 to 0.5 mg/ml pentoxifylline, RNA 24 hrs after transfection
Method: as §1

[5] = tested on: exon 23 of the dystrophin gene; test: Exon 23 skipping in mdx mice treated with PS49 with or without prednisolone (RT-PCR); type: in vivo
Method: Two mdx mice per group were injected subcutaneously with: Group 1) physiologic salt (wk 1-8), Group 2) prednisolone (1 mg/kg, wk 1-8), Group 3) mouse-specific antisense oligonucleotide PS49 designed to specifically induce exon 23 skipping (100 mg/kg, wk 4 (5 times), week 5-8 (2 times), Group 4) prednisolone (1 mg/kg, wk 1-8)+PS49 (100 mg/kg, wk 4 (5 times), week 5-8 (2 times). PS49 (5′ [sequence] 3′) has a full-length phosphorothioate backbone and 2′O-methyl modified ribose molecules.
All mice were sacrificed at 1 week post-last-injection. Different muscles groups, including quadriceps, tibialis anterior, and diaphragm muscles were isolated and frozen in liquid nitrogen-cooled 2-methylbutane. For RT-PCR analysis, the muscle samples were homogenized in the RNA-Bee solution (Campro Scientific, The Netherlands). Total RNA was isolated and purified according to the manufacturer's instructions. For cDNA synthesis with reverse transcriptase (Roche Diagnostics, The Netherlands), 300 ng of RNA was used in a 20 μl reaction at 55° C. for 30 min, reverse primed with mouse DMD gene-specific primers. First PCRs were performed with outer primer sets, for 20 cycles of 94° C. […] PCR products were analysed on 2% agarose gels. Skipping efficiencies were determined by quantification of PCR products using the DNA 1000 LabChip® Kit and the Agilent 2100 bioanalyzer (Agilent Technologies, The Netherlands).

[6] = tested on: dystrophin; settings: mdx mice; variability among animals; cited from earlier work
[7] = mdx mice, s.c., sacrificed 1 week post-last-injection

## CC(C)C[C@@H](C=O)NC(=O)[C@H](CC(C)C)NC(=O)[C@H](CC(C)C)NC(=O)OCc1ccccc1 [MG-132, CBZ-leucyl-leucyl-leucinal] (Cbz-Leu-Leu-Leu-aldehyde)
[1]
  Ki: 4 nM

## CC(=O)CCCCn1c(=O)c2c(ncn2C)n(C)c1=O [pentoxifylline]
[2]; [7]
  exon 23 skipping in muscles (RT-PCR): No exon 23 skipping was observed
[2]; quadriceps, tibialis anterior, triceps, heart, pentoxyfilline 50 mg/kg wk 1-2, PS49 100 mg/kg
  exon 23 skipping levels, PS49 plus pentoxyfilline (group 3) compared to PS49 only (group 2): enhances exon 23 skipping levels
[3]
  exon 44 skipping levels: enhances exon skipping levels
[3]; listed as pentoxyfilline
  exon 44 skipping levels: enhanced
[4]
  exon 45 skipping levels: enhances exon skipping levels
[4]; listed as pentoxyfilline
  exon 45 skipping levels: enhanced

## C[C@]12C=CC(=O)C=C1CC[C@@H]1[C@@H]2[C@@H](O)C[C@@]2(C)[C@H]1CC[C@]2(O)C(=O)CO [prednisolone]
[5]; [7]
  exon 23 skipping in muscles (RT-PCR): No exon 23 skipping was observed
[5]; quadriceps, tibialis anterior, diaphragm, prednisolone 1 mg/kg wk 1-8, PS49 100 mg/kg
  exon 23 skipping levels, PS49 plus prednisolone (group 4) compared to PS49 only (group 3): enhances exon 23 skipping levels

## PS188: 5′ UCAGCUUCUGUUAGCCACUG 3′; SEQ ID NO:10; an AON optimized to specifically skip exon 44 (chemistry not given here)
[3]
  exon 44 skipping levels: increasing levels

## PS221: 5′ AUUCAAUGUUCUGACAACAGUUUGC 3′; SEQ ID NO: 60; an AON optimized to specifically skip exon 45 (chemistry not given here)
[4]
  exon 45 skipping levels: increasing levels

## gentamicin
[6]
  novel dystrophin expression, of normal level: up to 20%
